# Data from patent US6303625A, “Triazolopyridines for the treatment of thrombosis disorders” (Ortho-McNeil Pharmaceutical, Inc., priority 1999, dated 2001).
# Experiments:
# [1] = test system: gel-filtered platelets; assay: In vitro inhibition of thrombin-induced gel-filtered platelet aggregation; type: cell-based; details: Homo sapiens; for inhibition at 50 µM: read-out: Platelet Aggregation % Inh. (50 μM)
# Experimental: In Vitro Inhibition of Thrombin-Induced Gel-Filtered Platelet Aggression Assay
# The percentage of platelet aggregation is calculated as an increase in light transmission of compound-treated platelet concentrate vs. control-treated platelet concentrate. Human blood was obtained from drug free, normal donors into tubes containing […] sodium citrate. Platelet rich plasma (PRP) was collected by centrifugation of whole blood at 200×g for 10 min at 25° C. The PRP (5 mL) was gel filtered through Sepharose 2B (bed volume 50 mL), and the platelet count was adjusted to 2×10^7 platelets per sample. The following constituents were added to a siliconized cuvette: concentrated platelet filtrate and Tyrode's buffer (0.14M NaCl, 0.0027M KCl, 0.012M NaHCO3,0.76 mM Na2 HPO4, 0.0055M glucose, 2 mg/mL BSA and 5.0 mM HEPES @ pH 7.4) in an amount equal to 350 μl, 50 μl of 20 mM calcium and 50 μl of the test compound. Aggregation was monitored in a BIODATA aggregometer for the 3 min following the addition of agonist (thrombin 50 μl of 1 unit/mL).
# [2] = target: GPIIb/IIIa (Homo sapiens, UniProt P05106+P08514); assay: In vitro solid phase purified glycoprotein IIb/IIIa binding assay (fibrinogen binding); details: for inhibition at 50 µM: read-out: Fibrinogen Binding % Inh. (50 μM)
# Experimental: In Vito Solid Phase Purified Glycoprotein IIB/IIA Binding Assay
# The plate was covered and incubated overnight at 4° C. The GPIIb/IIa solution was discarded and 150 μl of 5% BSA was added and incubated at RT for 1-3 h. The plate was washed extensively with modified Tyrodes buffer. Biotinylated fibrinogen (25 μl/well) at 2×final concentration was added to the wells that contain the test compounds (25 μl/well). The plate was covered and incubated at RT for 2-4 h. Twenty minutes prior to incubation completion, one drop of Reagent A (Vecta Stain ABC Horse Radish Peroxidase kit, Vector Laboratories, Inc.) and one drop Reagent B were added with mixing to 5 mL modified Tyrodes buffer mix and let stand. The ligand solution was discarded and the plate washed (5×200 μl/well) with modified Tyrodes buffer. Vecta Stain HRP-Biotin-Avidin reagent (50 μl/well, as prepared above) was added and incubated at RT for 15 min. The Vecta Stain solution was discarded and the wells washed (5×200 μl/well) with modified Tyrodes buffer. Developing buffer (10 mL of 50 mM citrate/phosphate buffer @ pH 5.3, 6 mg o-phenylenediamine, 6 μl 30% H2 O2; 50 μl/well) was added and incubated at RT for 3-5 min, and then 2N H2 SO4 (50 μl/well) was added. The absorbance was read at 490 nm.
# [3] = test system: ADP-induced ex vivo platelet aggregation; assay: Ex vivo dog study: duration of >50% inhibition of ADP-induced ex vivo platelet aggregation; type: in vivo
# Experimental: Adult mongrel dogs (8-13 kg) were anesthetized with sodium pentobarbital (35 mg/kg, i.v.) and artificially respired. Arterial blood pressure and heart rate were measured using a Millar catheter-tip pressure transducer inserted in a femoral artery. Another Millar transducer was placed in the left ventricle (LV) via a carotid artery to measure LV end diastolic pressure and indices of myocardial contractility. A lead II electrocardiogram was recorded from limb electrodes. Catheters were placed in a femoral artery and vein to sample blood and infuse drugs, respectively. Responses were continuously monitored using a Modular Instruments data acquisition system.
# Arterial blood samples (5-9 ml) were withdrawn into tubes containing 3.8% sodium citrate to prepare platelet rich plasma (PRP) and to determine effects on coagulation parameters: prothrombin time (PT) and activated partial thromboplastin time (APTT). Separate blood samples (1.5 ml) were withdrawn in EDTA to determine hematocrit and cell counts (platelets, RBC's and white cells). Template bleeding times were obtained from the buccal surface using a symplate incision devise and Whatman filter paper.
# Aggregation of PRP was performed using a BioData aggregometer. Aggregation of whole blood used a Chronolog impedance aggregometer. PT and APTT were determined on either a BioData or ACL 3000+ coagulation analyzer. Cells were counted with a Sysmex K-1000.
# Compounds were solubilized in a small volume of dimethylformamide (DMF) and diluted with saline to a final concentration of 10% DMF. Compounds were administered by the intravenous route with a Harvard infusion pump. Doses was administered over a 15 min interval at a constant rate of 0.33 ml/min. Data were obtained after each dose and in 30 min intervals following the end of drug administration. Oral doses were administered as aqueous solutions via syringe.
# GPIIb/IIIa, sequence (P08514 32-887 limits assumed): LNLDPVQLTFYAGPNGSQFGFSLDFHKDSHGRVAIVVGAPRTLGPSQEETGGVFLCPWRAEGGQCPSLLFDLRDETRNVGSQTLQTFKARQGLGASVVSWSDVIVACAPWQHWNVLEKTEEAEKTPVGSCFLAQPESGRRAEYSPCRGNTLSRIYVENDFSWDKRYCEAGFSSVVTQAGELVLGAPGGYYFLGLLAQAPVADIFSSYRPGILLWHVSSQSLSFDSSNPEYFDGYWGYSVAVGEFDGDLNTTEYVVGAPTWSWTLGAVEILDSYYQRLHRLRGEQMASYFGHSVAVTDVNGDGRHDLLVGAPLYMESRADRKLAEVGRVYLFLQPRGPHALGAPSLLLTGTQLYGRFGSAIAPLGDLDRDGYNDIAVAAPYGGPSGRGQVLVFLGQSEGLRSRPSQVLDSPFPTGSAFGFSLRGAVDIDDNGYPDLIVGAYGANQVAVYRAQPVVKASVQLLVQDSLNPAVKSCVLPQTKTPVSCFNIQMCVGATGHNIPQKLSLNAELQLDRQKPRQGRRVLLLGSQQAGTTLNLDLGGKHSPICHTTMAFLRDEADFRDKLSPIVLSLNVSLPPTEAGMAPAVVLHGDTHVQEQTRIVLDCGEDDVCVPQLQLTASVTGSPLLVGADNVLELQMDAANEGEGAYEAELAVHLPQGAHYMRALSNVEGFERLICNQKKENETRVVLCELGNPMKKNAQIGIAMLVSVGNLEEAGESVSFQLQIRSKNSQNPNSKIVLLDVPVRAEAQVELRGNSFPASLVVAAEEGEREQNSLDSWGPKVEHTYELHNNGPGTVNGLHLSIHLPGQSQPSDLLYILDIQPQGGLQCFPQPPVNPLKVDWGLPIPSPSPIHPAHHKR
# GPIIb/IIIa, sequence (P08514 891-1039 limits assumed): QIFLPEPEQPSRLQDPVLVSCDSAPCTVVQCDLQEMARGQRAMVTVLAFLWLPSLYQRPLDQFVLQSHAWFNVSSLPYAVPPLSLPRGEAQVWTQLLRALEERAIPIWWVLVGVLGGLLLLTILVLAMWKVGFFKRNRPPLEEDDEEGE
# GPIIb/IIIa, sequence (P05106 27-788): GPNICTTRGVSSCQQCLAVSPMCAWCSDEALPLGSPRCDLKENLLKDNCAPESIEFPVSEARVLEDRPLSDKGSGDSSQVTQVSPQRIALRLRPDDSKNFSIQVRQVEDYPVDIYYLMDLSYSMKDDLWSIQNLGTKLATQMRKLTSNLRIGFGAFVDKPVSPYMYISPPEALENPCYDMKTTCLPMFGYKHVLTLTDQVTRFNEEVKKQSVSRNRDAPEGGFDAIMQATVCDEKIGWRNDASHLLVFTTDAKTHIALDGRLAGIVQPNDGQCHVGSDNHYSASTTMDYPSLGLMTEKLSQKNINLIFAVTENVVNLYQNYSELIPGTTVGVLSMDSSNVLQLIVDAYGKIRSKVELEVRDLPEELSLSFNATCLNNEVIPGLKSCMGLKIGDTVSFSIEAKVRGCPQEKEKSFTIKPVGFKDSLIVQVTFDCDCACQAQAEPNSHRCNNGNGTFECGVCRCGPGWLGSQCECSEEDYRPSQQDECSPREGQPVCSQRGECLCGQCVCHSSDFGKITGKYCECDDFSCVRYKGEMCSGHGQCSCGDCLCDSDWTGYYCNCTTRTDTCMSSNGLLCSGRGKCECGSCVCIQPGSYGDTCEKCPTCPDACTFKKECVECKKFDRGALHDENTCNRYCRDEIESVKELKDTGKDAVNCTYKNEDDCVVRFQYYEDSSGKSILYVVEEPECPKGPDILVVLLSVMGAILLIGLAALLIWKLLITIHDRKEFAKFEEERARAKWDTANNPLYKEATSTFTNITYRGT
Structure (SMILES),IC50 [1] [nM],IC50 [2] [nM],inhibition at 50 µM [2] [%],inhibition at 50 µM [1] [%],Intravenous Dosing Duration (of >50% inhibition of ADP-induced ex vivo platelet aggregation) ([3]; 0.3 mpk) [min],Oral Dosing Duration (of >50% inhibition of ADP-induced ex vivo platelet aggregation) ([3]; 3 mpk) [min],Intravenous Dosing Duration (of >50% inhibition of ADP-induced ex vivo platelet aggregation) ([3]; 0.1 mpk) [min],Oral Dosing Duration (of >50% inhibition of ADP-induced ex vivo platelet aggregation) ([3]; 1 mpk) [min]
"O=C(O)C[C@H](NC(=O)C1CCCn2c(CCC3CCNCC3)nnc21)c1cccnc1 (stereo partly drawn) [Compound 1, β-[[[5,6,7,8-Tetrahydro-3-[2-(4-piperidinyl)ethyl]-1,2,4-triazolo[4,3-a]pyridin-8-yl]carbonyl]amino]-βS-3-pyridinepropanoic acid]",16,0.4,100,100,180,360,,
"O=C(O)CCNC(=O)C1CCCn2c(CCC3CCNCC3)nnc21 (stereo not drawn) [Compound 2, β-[[[5,6,7,8-Tetrahydro-3-[2-(4-piperidinyl)ethyl]-1,2,4-triazolo[4,3-a]pyridin-8-yl]carbonyl]amino]-β-propanoic acid]",1300,7.2,98,98,,,,
"CCN(CC)C(=O)COC(=O)C[C@H](NC(=O)C1CCCn2c(CCC3CCNCC3)nnc21)c1cccnc1 (stereo partly drawn) [Compound 4, β-[[[5,6,7,8-Tetrahydro-3-[2-(4-piperidinyl)ethyl]-1,2,4-triazolo[4,3-a]pyridin-8-yl]carbonyl]amino]-βS-3-pyridinepropanoic acid 2-(Diethylamino)-2-oxoethyl ester]",16400,44.7,100,100,,,,< 30
"O=C(O)CC(NC(=O)C1CCCn2c(CCC3CCNCC3)nnc21)c1ccsc1 (stereo not drawn) [Compound 7, β-[[[5,6,7,8-Tetrahydro-3-[2-(4-piperidinyl)ethyl]-1,2,4-triazolo[4,3-a]pyridin-8-yl]carbonyl]amino]-β-3-thiophenepropanoic acid]",350,0.75,100,100,,,,
"O=C(O)CC(NC(=O)C1CCCn2c(/C=C/C3CCNCC3)nnc21)c1ccncc1 (stereo not drawn) [Compound 10, β-[[[5,6,7,8-Tetrahydro-3-[2-(4-piperidinyl)E-ethylene]-1,2,4-triazolo[4,3-a]pyridin-8-yl]carbonyl]amino]-β-4-pyridinepropanoic acid]",180,0.94,100,100,,,,
"Cc1noc(C)c1S(=O)(=O)N[C@@H](CNC(=O)C1CCCn2c(/C=C/C3CCNCC3)nnc21)C(=O)O (stereo partly drawn) [Compound 11, β-[[[5,6,7,8-Tetrahydro-3-[2-(4-piperidinyl)E-ethylene]-1,2,4-triazolo[4,3-a]pyridin-8-yl]carbonyl]amino]-αS-4-(3,5-dimethylisoxazolyl)sulfonylamino-propanoic acid]",110,1.1,100,100,,,,
"O=C(O)C[C@H](NC(=O)C1CCCn2c(/C=C/C3CCNCC3)nnc21)c1cnc2ccccc2c1 (stereo partly drawn) [Compound 13, β-[[[5,6,7,8-Tetrahydro-3-[2-(4-piperidinyl)E-ethylene]-1,2,4-tiazolo[4,3-a]pyridin-8-yl]carbonyl]amino]-βS-3-quinolinylpropanoic acid]",57,0.44,100,100,,,,
"CC(C)COC(=O)N[C@@H](CNC(=O)C1CCCn2c(/C=C/C3CCNCC3)nnc21)C(=O)O (stereo partly drawn) [Compound 16, β-[[[5,6,7,8-Tetrahydro-3-[2-(4-piperidinyl)E-ethylene]-1,2,4-triazolo[4,3-a]pyridin-8-yl]carbonyl]amino]-αS-isobutyloxycarbonylamino-propanoic acid]",600,0.6,100,100,,,,
"O=C(O)C[C@H](NC(=O)c1cccn2c(CCC3CCNCC3)nnc12)c1cccnc1 [Compound 17, β-[[[3-[2-(4-piperidinyl)ethyl]-1,2,4-triazolo[4,3-a]pyridin-8-yl]carbonyl]amino]-βS-3-pyridylpropanoic acid]",> 1000,443,90,,,,,

# Further lines, with some results ahead:
IC50 [1] [nM],IC50 [2] [nM],inhibition at 50 µM [2] [%],Structure (SMILES),inhibition at 50 µM [1] [%],Intravenous Dosing Duration (of >50% inhibition of ADP-induced ex vivo platelet aggregation) ([3]; 0.3 mpk) [min],Oral Dosing Duration (of >50% inhibition of ADP-induced ex vivo platelet aggregation) ([3]; 3 mpk) [min],Intravenous Dosing Duration (of >50% inhibition of ADP-induced ex vivo platelet aggregation) ([3]; 0.1 mpk) [min],Oral Dosing Duration (of >50% inhibition of ADP-induced ex vivo platelet aggregation) ([3]; 1 mpk) [min]
68,0.48,100,"O=C(N[C@@H](CNC(=O)C1CCCn2c(CCC3CCNCC3)nnc21)C(=O)O)OCc1ccccc1 (stereo partly drawn) [Compound 3, β-[[[5,6,7,8-Tetrahydro-3-[2-(4-piperidinyl)ethyl]-1,2,4-triazolo[4,3-a]pyridin-8-yl]carbonyl]amino]-αS-benzyloxycarbonylamino-propanoic acid]",100,,,120,300
23,0.1,100,"O=C(N[C@@H](CNC(=O)C1CCCn2c(/C=C/C3CCNCC3)nnc21)C(=O)O)OCc1ccccc1 (stereo partly drawn) [Compound 5, β-[[[5,6,7,8-Tetrahydro-3-[2-(4-pipieridinyl)E-ethylene]-1,2,4-triazolo[4,3-a]pyridin-8-yl]carbonyl]amino]-αS-benzyloxycarbonylamino-propanoic acid]",100,,,120,360
1900,8.2,100,"CCN(CC)C(=O)COC(=O)[C@H](CNC(=O)C1CCCn2c(CCC3CCNCC3)nnc21)NC(=O)OCc1ccccc1 (stereo partly drawn) [Compound 6, β-[[[5,6,7,8-Tetrahydro-3-[2-(4-piperidinyl)ethyl]-1,2,4-triazolo[4,3-a]pyridin-8-yl]carbonyl]amino]-αS-benzyloxycarbonylamino-propanoic acid 2-(Diethylamino)-2-oxoethyl ester]",100,,,,
500,1.7,100,"O=C(NC(CNC(=O)C1CCCn2c(C(F)=CC3CCNCC3)nnc21)C(=O)O)OCc1ccccc1 (stereo not drawn) [Compound 9, β-[[[6,7,8-Tetrahydro-3-[2-(4-piperidinyl)Z-1-fluoroethylene]-1,2,4-triazolo[4,3-a]pyridin-8-yl]carbonyl]amino]-αS-benzyloxycarbonylamino-propanoic acid]",100,,,,
43,0.51,100,"O=C(NC[C@H](NS(=O)(=O)Cc1ccccc1)C(=O)O)C1CCCn2c(/C=C/C3CCNCC3)nnc21 (stereo partly drawn) [Compound 14, β-[[[5,6,7,8-Tetrahydro-3-[2-(4-piperidinyl)E-ethylene]-1,2,4-triazolo[4,3-a]pyridin-8-yl]carbonyl]amino]-αS-benzylsulfonylamino-propanoic acid]",100,,,,
120,1.4,100,"O=C(Cc1cccnc1)N[C@@H](CNC(=O)C1CCCn2c(/C=C/C3CCNCC3)nnc21)C(=O)O (stereo partly drawn) [Compound 15, β-[[[5,6,7,8-Tetrahydro-3-[2-(4-piperidinyl)E-ethylene]-1,2,4-triazolo[4,3-a]pyridin-8-yl]carbonyl]amino]-αS-3-pyridylacetylamino-propanoicacid]",100,,,,
